Assay results: patent EP4667467A1, “PROTAC DEGRADERS OF MLLT1 AND/OR MLLT3” (Dark Blue Therapeutics Ltd, priority 2024, dated 2025)

Biological target: T1, MLLT1 (Homo sapiens, UniProt Q03111)
T1 construct: endogenous in cells; host or cells: MV4-11 (ATCC CRL-9591)
T1 sequence (Q03111 1-559): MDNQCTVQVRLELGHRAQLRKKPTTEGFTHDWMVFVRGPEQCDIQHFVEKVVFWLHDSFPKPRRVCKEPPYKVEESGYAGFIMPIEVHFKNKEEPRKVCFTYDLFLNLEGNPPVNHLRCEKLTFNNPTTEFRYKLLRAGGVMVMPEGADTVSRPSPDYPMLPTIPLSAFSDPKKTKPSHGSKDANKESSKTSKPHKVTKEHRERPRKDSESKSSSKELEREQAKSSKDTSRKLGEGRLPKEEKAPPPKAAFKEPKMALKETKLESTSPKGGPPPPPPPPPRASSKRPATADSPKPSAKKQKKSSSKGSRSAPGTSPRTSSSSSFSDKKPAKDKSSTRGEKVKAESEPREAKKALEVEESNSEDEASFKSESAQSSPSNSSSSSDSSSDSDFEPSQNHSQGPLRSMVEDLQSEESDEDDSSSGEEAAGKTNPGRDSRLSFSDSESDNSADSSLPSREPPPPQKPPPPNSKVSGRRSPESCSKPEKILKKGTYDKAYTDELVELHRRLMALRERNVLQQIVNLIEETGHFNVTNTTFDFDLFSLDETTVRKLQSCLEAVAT
Assay: MLLT1 Degradation Assay (JESS automated chemiluminescent detection, MV4-11 cells)
Type: cell-based
Conditions: 24h, with respect to DMSO control; for MLLT1 % Degradation @ 0.01 µM: 0.01 µM (10 nM) test compound; for MLLT1 % Degradation @ 0.1 µM: 0.1 µM (100 nM) test compound; for MLLT 1 % Degradation @ 1 µM: 1 µM (1000 nM) test compound
Procedure: MLLT1 degradation efficacy of compounds were tested in an automated chemiluminescent detection system (JESS, Cat# 004-650). […] 10 mM DMSO stocks were prepared, and cells were treated with three concentrations of test compounds viz. 1000, 100 and 10 nM at a final DMSO concentration of 0.1% and incubated for 24h at 37°C, 5% CO2. […] Post run, data were analysed using "Compass for SW" software for chemiluminescent detection. The peak area for each band was used for the calculation of MLLT1 degradation with respect to DMSO control. Data is shown as "MLLT1 % degradation".

Row | SMILES | MLLT1 % Degradation @ 0.01 µM | MLLT1 % Degradation @ 0.1 µM | MLLT 1 % Degradation @ 1 µM
1 | CN1CCC[C@@H]1c1cc2cnc(NC(=O)c3ccc(-c4cnn(CCCC5CCN(c6cccc(C(=O)N[C@H]7CCC(=O)NC7=O)n6)CC5)c4)cc3)cc2[nH]1 [Example 60, N-((S)-2,6-dioxopiperidin-3-yl)-6-(4-(3-(4-(4-((2-((R)-1-methylpyrrolidin-2-yl)-1H-pyrrolo[3,2-c]pyridin-6-yl)carbamoyl)phenyl)-1H-pyrazol-1-yl)propyl)piperidin-1-yl)picolinamide] | A (Category A: A ≥ 75% degradation) | A (Category A: A ≥ 75% degradation) | A (Category A: A ≥ 75% degradation)
2 | CN1CCC[C@@H]1c1cc2cnc(NC(=O)c3ccc(CCCC#Cc4cccc(N5CCC(=O)NC5=O)n4)cc3)cc2[nH]1 [Example 63, (R)-4-(5-(6-(2,4-dioxotetrahydropyrimidin-1(2H)-yl)pyridin-2-yl)pent-4-yn-1-yl)-N-(2-(1-methylpyrrolidin-2-yl)-1H-pyrrolo[3,2-c]pyridin-6-yl)benzamide] | D (Category D: D < 25% degradation) | D (Category D: D < 25% degradation) | C (Category C: 25% ≤ C < 50% degradation)
3 | CN1CCC[C@@H]1c1cc2cnc(NC(=O)c3ccc(N4CCC(OCC5CCN(c6cccc7c6C(=O)N(C6CCC(=O)NC6=O)C7=O)CC5)CC4)nc3)cc2[nH]1 (stereo partly drawn) [Example 18, 6-(4-((1-(2-(2,6-dioxopiperidin-3-yl)-1,3-dioxoisoindolin-4-yl)piperidin-4-yl)methoxy)piperidin-1-yl)-N-(2-((R)-1-methylpyrrolidin-2-yl)-1H-pyrrolo[3,2-c]pyridin-6-yl)nicotinamide] | B (Category B: 50% ≤ B < 75% degradation) | A (Category A: A ≥ 75% degradation) | A (Category A: A ≥ 75% degradation)
4 | CN1CCC[C@@H]1c1cc2cnc(NC(=O)CCCCCC3CCN(c4cccc5c4C(=O)N(C4CCC(=O)NC4=O)C5=O)CC3)cc2[nH]1 (stereo partly drawn) [Example 43, 6-(1-(2-(2,6-dioxopiperidin-3-yl)-1,3-dioxoisoindolin-4-yl)piperidin-4-yl)-N-(2-((R)-1-methylpyrrolidin-2-yl)-1H-pyrrolo[3,2-c]pyridin-6-yl)hexanamide] |  | A (Category A: A ≥ 75% degradation) | B (Category B: 50% ≤ B < 75% degradation)
5 | CN1CCC[C@@H]1c1cc2cnc(NC(=O)CCCC3CCCN(c4cccc5c4C(=O)N(C4CCC(=O)NC4=O)C5=O)C3)cc2[nH]1 (stereo partly drawn) [Example 44, 4-(1-(2-(2,6-dioxopiperidin-3-yl)-1,3-dioxoisoindolin-4-yl)piperidin-3-yl)-N-(2-((R)-1-methylpyrrolidin-2-yl)-1H-pyrrolo[3,2-c]pyridin-6-yl)butanamide] |  | C (Category C: 25% ≤ C < 50% degradation) | C (Category C: 25% ≤ C < 50% degradation)
6 | CN1CCC[C@@H]1c1cc2cnc(NC(=O)c3ccc(CCCC#Cc4ccc(C(=O)N[C@H]5CCC(=O)NC5=O)nc4)cc3)cc2[nH]1 [Example 11, N-((S)-2,6-dioxopiperidin-3-yl)-5-(5-(4-((2-((R)-1-methylpyrrolidin-2-yl)-1H-pyrrolo[3,2-c]pyridin-6-yl)carbamoyl)phenyl)pent-1-yn-1-yl)picolinamide] | D (Category D: D < 25% degradation) | C (Category C: 25% ≤ C < 50% degradation) | B (Category B: 50% ≤ B < 75% degradation)
7 | CN1CCC[C@@H]1c1cc2cnc(NC(=O)c3cccc(C4CCN(c5cccc6c5C(=O)N(C5CCC(=O)NC5=O)C6=O)CC4)c3)cc2[nH]1 (stereo partly drawn) [Example 14, 3-(1-(2-(2,6-dioxopiperidin-3-yl)-1,3-dioxoisoindolin-4-yl)piperidin-4-yl)-N-(2-((R)-1-methylpyrrolidin-2-yl)-1H-pyrrolo[3,2-c]pyridin-6-yl)benzamide] | B (Category B: 50% ≤ B < 75% degradation) | A (Category A: A ≥ 75% degradation) | A (Category A: A ≥ 75% degradation)
8 | CN1CCC[C@@H]1c1cc2cnc(NC(=O)c3ccc(CCCCC#Cc4cccc(N5CCC(=O)NC5=O)n4)cc3)cc2[nH]1 [Example 9, (R)-4-(6-(6-(2,4-dioxotetrahydropyrimidin-1(2H)-yl)pyridin-2-yl)hex-5-yn-1-yl)-N-(2-(1-methylpyrrolidin-2-yl)-1H-pyrrolo[3,2-c]pyridin-6-yl)benzamide] | A (Category A: A ≥ 75% degradation) | A (Category A: A ≥ 75% degradation) | A (Category A: A ≥ 75% degradation)
9 | CN1CCCC1c1cc2cnc(NC(=O)c3ccc(OCC#Cc4cccc5c4CN(C4CCC(=O)NC4=O)C5=O)cn3)cc2[nH]1 (stereo not drawn) [Example 50, 5-[3-[2-(2,6-dioxo-3-piperidyl)-1-oxo-isoindolin-4-yl]prop-2-ynoxy]-N-[2-(1-methylpyrrolidin-2-yl)-1H-pyrrolo[3,2-c]pyridin-6-yl]pyridine-2-carboxamide] | B (Category B: 50% ≤ B < 75% degradation) | B (Category B: 50% ≤ B < 75% degradation) | B (Category B: 50% ≤ B < 75% degradation)
10 | CN1CCC[C@@H]1c1cc2cnc(NC(=O)c3ccc(N4CCN(CC5CCN(c6cccc7c6C(=O)N(C6CCC(=O)NC6=O)C7=O)CC5)CC4)nc3)cc2[nH]1 (stereo partly drawn) [Example 5, 6-(4-((1-(2-(2,6-dioxopiperidin-3-yl)-1,3-dioxoisoindolin-4-yl)piperidin-4-yl)methyl)piperazin-1-yl)-N-(2-((R)-1-methylpyrrolidin-2-yl)-1H-pyrrolo[3,2-c]pyridin-6-yl)nicotinamide] | B (Category B: 50% ≤ B < 75% degradation) | A (Category A: A ≥ 75% degradation) | A (Category A: A ≥ 75% degradation)
11 | CN1CCC[C@@H]1c1cc2cnc(NC(=O)CCCCCCNc3ccc4c(c3)C(=O)N(C3CCC(=O)NC3=O)C4=O)cc2[nH]1 (stereo partly drawn) [Example 27, 7-{[2-(2,6-dioxopiperidin-3-yl)-1,3-dioxoisoindol-5-yl]amino}-N-{2-[(2R)-1-methylpyrrolidin-2-yl]-1H-pyrrolo[3,2-c]pyridin-6-yl}heptanamide] | C (Category C: 25% ≤ C < 50% degradation) | C (Category C: 25% ≤ C < 50% degradation) | B (Category B: 50% ≤ B < 75% degradation)

Further lines, results first:

Row | MLLT1 % Degradation @ 0.01 µM | MLLT1 % Degradation @ 0.1 µM | MLLT 1 % Degradation @ 1 µM | SMILES
12 | A (Category A: A ≥ 75% degradation) | A (Category A: A ≥ 75% degradation) | A (Category A: A ≥ 75% degradation) | CN1CCC[C@@H]1c1cc2cnc(NC(=O)c3ccc(N4CCC(c5ccc(-c6cccc7c6CN(C6CCC(=O)NC6=O)C7=O)cc5)CC4)nc3)cc2[nH]1 (stereo partly drawn) [Example 67, 6-(4-(4-(2-(2,6-dioxopiperidin-3-yl)-1-oxoisoindolin-4-yl)phenyl)piperidin-1-yl)-N-(2-((R)-1-methylpyrrolidin-2-yl)-1H-pyrrolo[3,2-c]pyridin-6-yl)nicotinamide]
13 |  | A (Category A: A ≥ 75% degradation) | A (Category A: A ≥ 75% degradation) | CN1CCC[C@@H]1c1cc2cnc(NC(=O)c3ccc(-c4cnn(CCCC5CCN(c6cccc7c6C(=O)N(C6CCC(=O)NC6=O)C7=O)CC5)c4)cc3)cc2[nH]1 (stereo partly drawn) [Example 34, 4-[1-(3-{1-[2-(2,6-dioxopiperidin-3-yl)-1,3-dioxoisoindol-4-yl]piperidin-4-yl}propyl)pyrazol-4-yl]-N-{2-[(2R)-1-methylpyrrolidin-2-yl]-1H-pyrrolo[3,2-c]pyridin-6-yl}benzamide]
14 | A (Category A: A ≥ 75% degradation) | A (Category A: A ≥ 75% degradation) | A (Category A: A ≥ 75% degradation) | CN1CCC[C@@H]1c1cc2cnc(NC(=O)c3ccc(CCCC#Cc4cccc5c4CN(C4CCC(=O)NC4=O)C5=O)cc3)cc2[nH]1 (stereo partly drawn) [Example 55, 4-(5-(2-(2,6-dioxopiperidin-3-yl)-1-oxoisoindolin-4-yl)pent-4-yn-1-yl)-N-(2-((R)-1-methylpyrrolidin-2-yl)-1H-pyrrolo[3,2-c]pyridin-6-yl)benzamide]
15 | A (Category A: A ≥ 75% degradation) | A (Category A: A ≥ 75% degradation) | A (Category A: A ≥ 75% degradation) | CN1CCC[C@@H]1c1cc2cnc(NC(=O)c3ccc(OCC#Cc4cccc5c4CN(C4CCC(=O)NC4=O)C5=O)cc3F)cc2[nH]1 (stereo partly drawn) [Example 57, 4-((3-(2-(2,6-dioxopiperidin-3-yl)-1-oxoisoindolin-4-yl)prop-2-yn-1-yl)oxy)-2-fluoro-N-(2-((R)-1-methylpyrrolidin-2-yl)-1H-pyrrolo[3,2-c]pyridin-6-yl)benzamide]
